Our source for the Ki values is patent US20080076760A1, “2,3,4,5-TETRAHYDRO-1H-1,5-BENZODIAZEPINE DERIVATIVE AND MEDICINAL COMPOSITION” (priority 2004, published 2008).

The target in test [1] is human vasopressin V1a receptor (Homo sapiens, UniProt P37288). In words: Receptor binding study, [3H]AVP displacement on CHO cell membranes, human V1a. The following applies: [3H]AVP displacement, CHO cell membrane, 25° C., one hour; read-out: Human V1a Ki. In a few lines:
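Membrane binding in 50 mM Tris-HCl pH 7.4 with MgCl2 and 0.1% BSA, incubated 1 h at 25° C. Bound ligand collected by rapid filtration on glass fiber filters, washed with ice-cold buffer, and counted for radioactivity. Nonspecific binding defined with 1 μM unlabeled AVP.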

Test [2] addresses human vasopressin V2 receptor (Homo sapiens, UniProt P30518). The test can be described thus: Receptor binding study, [3H]AVP displacement on CHO cell membranes, human V2. As to conditions: [3H]AVP displacement, CHO cell membrane, 25° C., one hour; read-out: Human V2 Ki. In a few lines: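 Displacement format: test compound over a concentration range competes with constant [3H]AVP (0.5 nM to 1.0 nM) for human V2 sites on CHO membranes, one hour at room temperature (25 °C), Tris-HCl pH 7.4 buffer. Filtration then radioactivity counting; 1 μM non-radioactive AVP gives nonspecific binding.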

What is called Ki is the equilibrium dissociation constant of an inhibitor or competing ligand from its target.

Chain of human vasopressin V1a receptor (P37288 whole entry): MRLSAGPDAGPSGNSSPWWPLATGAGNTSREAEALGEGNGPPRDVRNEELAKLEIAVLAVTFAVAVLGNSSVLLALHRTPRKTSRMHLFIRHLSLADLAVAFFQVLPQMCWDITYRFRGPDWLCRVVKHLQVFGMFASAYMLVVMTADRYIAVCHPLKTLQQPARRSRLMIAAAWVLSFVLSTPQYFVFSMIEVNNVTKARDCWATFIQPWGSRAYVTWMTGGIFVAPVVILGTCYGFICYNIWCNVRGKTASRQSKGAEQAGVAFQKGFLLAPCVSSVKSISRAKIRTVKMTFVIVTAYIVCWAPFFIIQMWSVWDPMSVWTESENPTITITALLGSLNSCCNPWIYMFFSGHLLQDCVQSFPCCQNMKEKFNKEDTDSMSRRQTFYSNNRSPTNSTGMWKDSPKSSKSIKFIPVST
Chain of human vasopressin V2 receptor (P30518 whole entry): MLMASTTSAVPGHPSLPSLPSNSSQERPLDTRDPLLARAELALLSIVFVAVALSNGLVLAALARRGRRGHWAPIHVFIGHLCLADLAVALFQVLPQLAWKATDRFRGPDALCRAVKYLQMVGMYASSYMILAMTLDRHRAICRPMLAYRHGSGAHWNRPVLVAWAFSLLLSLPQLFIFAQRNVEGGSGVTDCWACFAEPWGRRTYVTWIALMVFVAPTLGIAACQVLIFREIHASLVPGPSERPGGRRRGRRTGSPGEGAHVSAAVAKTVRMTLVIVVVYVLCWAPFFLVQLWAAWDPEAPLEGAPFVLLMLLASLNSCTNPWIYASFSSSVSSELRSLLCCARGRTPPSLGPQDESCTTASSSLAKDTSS

For `CCCN1CCN(CCCOc2cc(C(=O)N3CC[C@H](C)Nc4ccccc43)ccc2-c2ccc(NCC)cc2)CC1` [Example 159, N-ethyl-4′-[[(4S)-4-methyl-2,3-4,5-tetrahydro-1H-1,5-benzodiazepin-1-yl]carbonyl]-2′-[3-(4-propyl-1-piperazinyl)propoxy][1,1′-biphenyl]-4-amine], the Ki in test [1] was determined as 0.18 nM; in test [2], 11 nM.
In the case of `C[C@H]1CCN(C(=O)c2ccc(-c3ccc4[nH]ccc4c3)c(C(=O)OCCCN3CCN(C)CC3)c2)c2ccccc2N1` [Example 136, 3-(4-methyl-1-piperazinyl)propyl 2-(1H-indol-5-yl)-5-[[(4S)-4-methyl-2,3,4,5-tetrahydro-1H-1,5-benzodiazepin-1-yl]carbonyl]benzoate], the values for the Ki in test [1] and in test [2] were 0.23 nM and 16 nM, respectively.
The like results for `C[C@H]1CCN(C(=O)c2ccc(-c3ccc4[nH]ccc4c3)c(C(=O)OCCCN(C)C)c2)c2ccccc2N1` [Example 120, 3-(dimethylamino)propyl 2-(1H-indol-5-yl)-5-[[(4S)-4-methyl-2,3,4,5-tetrahydro-1H-1,5-benzodiazepin-1-yl]carbonyl]benzoate] were, in that order, 0.2 nM and 93 nM.
Taken in the same sequence, the figures for `CCCN(C)CCCOc1cc(C(=O)N2CC[C@@H](C)Nc3ccccc32)ccc1-c1ccc2[nH]ccc2c1` [Example 127, N-[3-[2-(1H-indol-5-yl)-5-[[(4R)-4-methyl-2,3,4,5-tetrahydro-1H-1,5-benzodiazepin-1-yl)carbonyl]phenoxy]propyl]-N-methyl-N-propylamine] were 0.21 nM and 77 nM.
Take `C[C@@H]1CCN(C(=O)c2ccc(-c3ccc4[nH]ccc4c3)c(OCCCN)c2)c2ccccc2N1` [Example 55, 3-[2-(1H-indol-5-yl)-5-[[(4R)-4-methyl-2,3,4,5-tetrahydro-1H-1,5-benzodiazepin-1-yl]carbonyl]phenoxy]propylamine]: the figures for the Ki in test [1] and in test [2] were 0.31 nM and 25 nM, respectively.
Taken in the same sequence, the figures for `C[C@H]1CCN(C(=O)c2ccc(-c3ccc4[nH]ccc4c3)c(OCCCCCN3CCOCC3)c2)c2ccccc2N1` [Example 69, (4S)-1-[4-(1H-indol-5-yl)-3-[[5-(4-morpholinyl)pentyl]oxy]benzoyl]-4-methyl-2,3,4,5-tetrahydro-1H-1,5-benzodiazepine] were 0.24 nM and 17 nM.
As for `CCCCCN(C)CCCOc1cc(C(=O)N2CC[C@H](C)Nc3ccccc32)ccc1-c1ccc2[nH]ccc2c1` [Example 108, N-[3-[2-(1H-indol-5-yl)-5-[[(4S)-4-methyl-2,3,4,5-tetrahydro-1H-1,5-benzodiazepin-1-yl]carbonyl]phenoxy]propyl]-N-methyl-1-pentaneamine], the values for the Ki in test [1] and in test [2] were 0.42 nM and 21 nM, respectively.
With `CCCCN(C)CCCOc1cc(C(=O)N2CC[C@H](C)Nc3ccccc32)ccc1-c1ccc2[nH]ccc2c1` [Example 114, N-[3-[2-(1H-indol-5-yl)-5-[[(4S)-4-methyl-2,3,4,5-tetrahydro-1H-1,5-benzodiazepin-1-yl]carbonyl]phenoxy]propyl]-N-methyl-1-butaneamine], the Ki came to 0.22 nM in test [1] and 18 nM in test [2].
On to `C[C@H]1CCN(C(=O)c2ccc(-c3ccc4[nH]ccc4c3)c(N3CCOCC3)c2)c2ccccc2N1` [Example 134, (4S)-1-[4-(1H-indol-5-yl)-3-(4-morpholinyl)benzoyl]-4-methyl-2,3,4,5-tetrahydro-1H-1,5-benzodiazepine], for which the figures for the Ki in test [1] and in test [2] were 0.49 nM and 2.7 nM, respectively.
Taken in the same sequence, the figures for `CCCN(C)CCCOc1cc(C(=O)N2CC[C@H](C)Nc3ccccc32)ccc1-c1ccc(NCC)cc1` [Example 129, N-ethyl-2′-[3-[methyl(propyl)amino]propoxy]-4′-[[(4S)-4-methyl-2,3,4,5-tetrahydro-1H-1,5-benzodiazepin-1-yl]carbonyl][1,1′-biphenyl]-4-amine] were 0.4 nM and 88 nM.
